These results are taken from US8642788B2, “Activators of executioner procaspases 3, 6 and 7” (The Regents of the University of California, priority 2008, dated 2014).

Structures are written as SMILES. pEC50: −log10 of the molar value.

The target of one test is T1, procaspase-3 (Homo sapiens, UniProt P42574).
T1 construct: His6 (C); made in house; host or cells: E. coli BL21(DE3)RP, pET-23b
T1 sequence (P42574 1-277): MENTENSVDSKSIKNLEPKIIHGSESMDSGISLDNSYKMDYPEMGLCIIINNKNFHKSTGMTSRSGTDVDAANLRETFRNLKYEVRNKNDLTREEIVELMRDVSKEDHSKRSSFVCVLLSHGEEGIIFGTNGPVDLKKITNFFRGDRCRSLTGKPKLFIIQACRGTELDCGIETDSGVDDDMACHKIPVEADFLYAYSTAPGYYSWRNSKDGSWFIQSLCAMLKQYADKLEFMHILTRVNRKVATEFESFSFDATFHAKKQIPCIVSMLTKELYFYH
Description: Executioner procaspase-3 activation assay (Ac-DEVD-AFC fluorogenic substrate). The test is classed as biochemical. The settings on record: incubation with compound for 5 h at 37° C.; 100 nM procaspase; read-out: Procaspase Activation 3. As to the method:
The executioner procaspase-3, -6 and -7 activation assay protocol involves incubating the target protein at the physiologically-relevant concentration of 100 nM with activating compounds (ranging from 100 nM to 100 uM) in a total volume of 50 μL consisting of a reaction buffer of 50 mM HEPES, pH 7.4, 50 mM KCl, 1 mM DTT and 0.01% Triton-X100 (to reduce false positive hits due to compound aggregation). […] All components of the assay including protein, substrate and inhibitor are stored as frozen aliquots and thawed immediately prior to the assay.

For a further test, the target named is T2, procaspase-6 (Homo sapiens, UniProt P55212).
T2 sequence (P55212 1-293): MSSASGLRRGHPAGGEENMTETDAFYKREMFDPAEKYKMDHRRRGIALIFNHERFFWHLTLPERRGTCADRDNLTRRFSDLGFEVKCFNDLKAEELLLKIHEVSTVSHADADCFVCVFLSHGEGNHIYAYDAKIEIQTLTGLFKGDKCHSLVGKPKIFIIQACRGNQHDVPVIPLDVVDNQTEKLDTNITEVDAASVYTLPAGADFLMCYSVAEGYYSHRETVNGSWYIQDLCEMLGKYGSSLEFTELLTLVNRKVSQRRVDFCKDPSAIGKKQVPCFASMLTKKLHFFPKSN
Description: Executioner procaspase-6 activation assay (Ac-VEID-AFC fluorogenic substrate). The test is classed as biochemical. The settings on record: incubation with compound for 5 h at 37° C.; 100 nM procaspase. The method, then: The executioner procaspase-3, -6 and -7 activation assay protocol involves incubating the target protein at the physiologically-relevant concentration of 100 nM with activating compounds (ranging from 100 nM to 100 uM) in a total volume of 50 μL consisting of a reaction buffer of 50 mM HEPES, pH 7.4, 50 mM KCl, 1 mM DTT and 0.01% Triton-X100 (to reduce false positive hits due to compound aggregation). The procaspase/small molecule incubations are then agitated at 37° C. and assayed at various time points by addition of the fluorogenic peptide substrate 7-Amino-4-trifluoromethylcoumarin-DEVD (Ac-DEVD-AFC) (procaspases-3, -7) or Ac-VEID-AFC (procaspase-6) to a final concentration of 25 μM and analyzed by a kinetic 30 minute assay (excitation 365 nm and emission 495 nm). The final concentration of DMSO in each well is 3% and has no effect on enzyme stability or activity. […] All components of the assay including protein, substrate and inhibitor are stored as frozen aliquots and thawed immediately prior to the assay.
Tables 1 and 2. Procaspase activation as a result of incubation with compound for 5 h at 37° C. (+++ EC50˜0.5-10 μM; ++ EC50˜10-50 μM; + EC50˜50-200 μM; -no activation observed; ND not determined).

`O=C(Nc1cccc(-c2cn3ccccc3n2)c1)c1cc2cccc(O)c2oc1=O` [1541A, 8-Hydroxy-2-oxo-2H-chromene-3-carboxylic acid (3-imidazo[1,2-a]pyridin-2-yl-phenyl)-amide]: the pEC50 on procaspase-3 was 5.00 to 6.30; on procaspase-6 it was less than 4.00.

Turning to `O=C(Nc1cccc(-c2cn3ccccc3n2)c1)c1cc2cccc(OC(F)(F)F)c2oc1=O` [1541B, 2-Oxo-8-trifluoromethoxy-2H-chromene-3-carboxylic acid (3-imidazo[1,2-a]pyridin-2-yl-phenyl)-amide], the pEC50 at procaspase-3 and at procaspase-6 was less than 4.00 in each case.

As for `COc1ccc2cc(C(=O)Nc3cccc(-c4cn5ccccc5n4)c3)c(=O)oc2c1` [1541C, 7-Methoxy-2-oxo-2H-chromene-3-carboxylic acid (3-imidazo[1,2-a]pyridin-2-yl-phenyl)-amide], the pEC50 at procaspase-3 and at procaspase-6 was less than 4.00 throughout.

Regarding `COc1cc(CN2CCOCC2)c2oc(=O)c(C(=O)Nc3cccc(-c4cn5ccccc5n4)c3)cc2c1` [1541D, 6-Methoxy-8-morpholin-4-ylmethyl-2-oxo-2H-chromene-3-carboxylic acid (3-imidazo[1,2-a]pyridin-2-yl-phenyl)-amide], the pEC50 at procaspase-3 and on procaspase-6 was less than 4.00 in each case.

Turning to `COc1cccc2cc(C(=O)Nc3cccc(-c4nc5ccccc5[nH]4)c3)c(=O)oc12` [1541F, 8-Methoxy-2-oxo-2H-chromene-3-carboxylic acid [3-(1H-benzoimidazol-2-yl)-phenyl]-amide], the pEC50 on procaspase-3 and on procaspase-6 was less than 4.00 in each case.

Regarding `COc1cccc2cc(C(=O)Nc3ccccc3)c(=O)oc12` [1541H, 8-Methoxy-2-oxo-2H-chromene-3-carboxylic acid phenylamide], the pEC50 at procaspase-3 and at procaspase-6 was less than 4.00 in each case.

As to `COc1cccc2cc(C(=O)Nc3cccc(N4CCOCC4)c3)c(=O)oc12` [1541I, 8-Methoxy-2-oxo-2H-chromene-3-carboxylic acid (3-morpholin-4-yl-phenyl)-amide], the pEC50 on procaspase-3 and on procaspase-6 was less than 4.00 in each case.

In the case of `O=C(Nc1cccc(-c2cn3ccccc3n2)c1)c1cc2cc(Br)ccc2oc1=O` [compound 1, 6-Bromo-2-oxo-2H-chromene-3-carboxylic acid (3-imidazo[1,2-a]pyridin-2-yl-phenyl)-amide], the pEC50 on procaspase-3 and at procaspase-6 was 3.70 to 4.30 each time.

Regarding `O=C(Nc1cccc(-c2cn3ccccc3n2)c1)c1cc2cccc(F)c2oc1=O` [compound 2, 8-Fluoro-2-oxo-2H-chromene-3-carboxylic acid (3-imidazo[1,2-a]pyridin-2-yl-phenyl)-amide], the pEC50 on procaspase-3 and on procaspase-6 was 5.00 to 6.30 in each case.

As to `O=C(Nc1cccc(-c2cn3ccccc3n2)c1)c1cc2ccc(O)c(O)c2oc1=O` [compound 3, 7,8-Dihydroxy-2-oxo-2H-chromene-3-carboxylic acid (3-imidazo[1,2-a]pyridin-2-yl-phenyl)-amide], the pEC50 on procaspase-3 was 3.70 to 4.30; at procaspase-6 it was less than 4.00.

For the compound `O=C(Nc1cccc(-c2cn3ccccc3n2)c1)c1cc2cccc(Br)c2oc1=O` [compound 4, 8-Bromo-2-oxo-2H-chromene-3-carboxylic acid (3-imidazo[1,2-a]pyridin-2-yl-phenyl)-amide], the pEC50 at procaspase-3 and at procaspase-6 was less than 4.00 throughout.

As to `CCOc1cccc2cc(C(=O)Nc3cccc(-c4cn5ccccc5n4)c3)c(=O)oc12` [compound 5, 8-Ethoxy-2-oxo-2H-chromene-3-carboxylic acid (3-imidazo[1,2-a]pyridin-2-yl-phenyl)-amide], the pEC50 at procaspase-3 and on procaspase-6 was less than 4.00 in each case.

Consider `COc1ccc2oc(=O)c(C(=O)Nc3cccc(-c4cn5ccccc5n4)c3)cc2c1` [compound 6, 6-Methoxy-2-oxo-2H-chromene-3-carboxylic acid (3-imidazo[1,2-a]pyridin-2-yl-phenyl)-amide], for which the pEC50 at procaspase-3 and on procaspase-6 was less than 4.00 throughout.

Take `O=C(Nc1cccc(-c2cn3ccccc3n2)c1)c1cc2cc(O)c(O)cc2oc1=O` [compound 7, 6,7-Dihydroxy-2-oxo-2H-chromene-3-carboxylic acid (3-imidazo[1,2-a]pyridin-2-yl-phenyl)-amide]: the pEC50 at procaspase-3 and on procaspase-6 was less than 4.00 throughout.

For the compound `COc1ccc2cc(C(=O)Nc3cccc(-c4cn5ccccc5n4)c3)c(=O)oc2c1OC` [compound 8, 7,8-Dimethoxy-2-oxo-2H-chromene-3-carboxylic acid (3-imidazo[1,2-a]pyridin-2-yl-phenyl)-amide], on procaspase-3, the pEC50 is less than 4.00.

As to `O=C(Nc1cccc(-c2cn3ccccc3n2)c1)c1cc2cc(OC(F)(F)F)ccc2oc1=O` [compound 9, 6-Trifluoromethoxy-2-oxo-2H-chromene-3-carboxylic acid (3-imidazo[1,2-a]pyridin-2-yl-phenyl)-amide], the pEC50 on procaspase-3 and at procaspase-6 was less than 4.00 in each case.

Turning to `O=C(Nc1cccc(-c2cn3ccccc3n2)c1)c1cc2cc(I)ccc2oc1=O` [compound 10, 6-Iodo-2-oxo-2H-chromene-3-carboxylic acid (3-imidazo[1,2-a]pyridin-2-yl-phenyl)-amide], the pEC50 on procaspase-3 and at procaspase-6 was less than 4.00 each time.

Consider `O=C(Nc1cccc(-c2cn3ccccc3n2)c1)c1cc2cc(O)ccc2oc1=O` [compound 11, 6-Hydroxy-2-oxo-2H-chromene-3-carboxylic acid (3-imidazo[1,2-a]pyridin-2-yl-phenyl)-amide], for which the pEC50 at procaspase-3 and at procaspase-6 was less than 4.00 in each case.

Turning to `O=C(Nc1cccc(-c2cn3ccccc3n2)c1)c1cc2ccccc2oc1=O` [compound 13, 2-oxo-2H-chromene-3-carboxylic acid (3-imidazo[1,2-a]pyridin-2-yl-phenyl)-amide], the pEC50 on procaspase-3 was less than 4.00.

As to `COc1cc(N2CCOCC2)c2oc(=O)c(C(=O)Nc3cccc(-c4cn5ccccc5n4)c3)cc2c1` [compound 14, 6-Methoxy-8-morpholin-4-yl-2-oxo-2H-chromene-3-carboxylic acid (3-imidazo[1,2-a]pyridin-2-yl-phenyl)-amide], the pEC50 on procaspase-3 and on procaspase-6 was less than 4.00 each time.

As for `COc1cccc2cc(C(=O)Nc3cccc(-c4ccncc4)c3)c(=O)oc12` [compound 20, 8-Methoxy-2-oxo-2H-chromene-3-carboxylic acid (3-pyridin-4-yl-phenyl)-amide], the pEC50 at procaspase-3 and at procaspase-6 was less than 4.00 each time.

Take `COc1cccc2cc(C(=O)Nc3cccc(-c4cn5ccccc5n4)c3)oc12` [compound 179, 7-Methoxy-benzofuran-2-carboxylic acid (3-imidazo[1,2-a]pyridin-2-yl-phenyl)-amide]: the pEC50 at procaspase-3 and on procaspase-6 was 4.30 to 5.00 throughout.

As to `O=C(Nc1cccc(-c2cn3ccccc3n2)c1)C1=Cc2cc(Cl)ccc2OC1` [compound 180, 6-Chloro-2H-chromene-3-carboxylic acid (3-imidazo[1,2-a]pyridin-2-yl-phenyl)-amide], the values for the pEC50 at procaspase-3 and on procaspase-6 were 3.70 to 4.30 and less than 4.00, respectively.

Turning to `O=C(Nc1cccc(-c2cn3ccccc3n2)c1)c1cc2ccccc2[nH]c1=O` [compound 181, 2-Oxo-1,2-dihydro-quinoline-3-carboxylic acid (3-imidazo[1,2-a]pyridin-2-yl-phenyl)-amide], the pEC50 on procaspase-3 and at procaspase-6 was 4.30 to 5.00 each time.

In the case of `COc1cccc2cc(C(=O)Nc3ccc(-c4nc5ccccc5[nH]4)cc3)c(=O)oc12` [compound 183, 8-Methoxy-2-oxo-2H-chromene-3-carboxylic acid [4-(1H-benzoimidazol-2-yl)-phenyl]-amide], the pEC50 at procaspase-3 was 5.00 to 6.30.

`COc1cccc2cc(C(=O)Nc3cccc(-c4cn5ccccc5n4)c3)c(=O)oc12` [compound 1541, 8-Methoxy-2-oxo-2H-chromene-3-carboxylic acid (3-imidazo[1,2-a]pyridin-2-yl-phenyl)-amide]: on procaspase-6, the pEC50 is 5.00 to 6.30.
